The values below come from patent publication US6380156B1, “Total synthesis of the amino hip analogue of didemnin A” (The Board of Trustees of the University of Illnois, priority 1996, dated 2002).

The test system of one data set is CV-1. Description: Cytotoxicity in the HSV/CV-1 antiviral test. The note with it: scale 0-least toxic to 16 (toxic).
Another data set has as its system HSV. Description: Antiviral activity, HSV/CV-1. Format: cell-based. The arrangement: key: +++ complete inhibition; ++ strong inhibition; + moderate inhibition; − no inhibition.
A further data set has as its system DNA and RNA viruses. The note with it: cited from earlier work.
For data set [1], the target named is elongation factor 1α (EF-1α) (Homo sapiens, UniProt P68104). The settings on record: GTP-dependent; cited from earlier work.
Chain of elongation factor 1α (EF-1α) (P68104 whole entry): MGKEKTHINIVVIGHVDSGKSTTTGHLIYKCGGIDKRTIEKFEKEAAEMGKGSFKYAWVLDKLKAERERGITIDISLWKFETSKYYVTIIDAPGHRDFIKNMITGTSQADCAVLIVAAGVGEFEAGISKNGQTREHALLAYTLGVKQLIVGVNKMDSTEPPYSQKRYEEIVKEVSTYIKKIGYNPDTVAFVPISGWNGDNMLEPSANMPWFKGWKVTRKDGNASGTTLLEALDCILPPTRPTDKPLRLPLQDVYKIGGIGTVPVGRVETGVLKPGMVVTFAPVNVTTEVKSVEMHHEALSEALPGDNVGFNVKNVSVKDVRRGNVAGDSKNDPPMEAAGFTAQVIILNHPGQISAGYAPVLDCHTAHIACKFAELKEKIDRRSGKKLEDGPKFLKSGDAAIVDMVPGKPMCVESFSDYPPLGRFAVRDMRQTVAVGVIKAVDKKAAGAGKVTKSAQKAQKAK
The conditions of data set [2]: in vitro; cited from earlier work.
The subject of a further data set is Nb2 node lymphoma cells. The settings on record: cited from earlier work.

Numbered stars: 1 amine (or outer) side, 2 acyl side, 3 side chain; on linkers, the order of the positions; unused ones are H or OH. Bridge positions count the residues as written; N and C are the ends. Square brackets hold non-standard residues; d marks the D form. Peptide text beside a SMILES is read from it. * marks the point of attachment. X1 = CC[C@H](C)[C@@H](N[*:1])[C@@H](O)CC(=O)[*:2]; X2 = CC(C)[C@H](N[*:1])C(=O)[C@H](C)C(=O)[*:2]; NMeY = CN[C@@H](Cc1ccc(O)cc1)C(=O)O; dNMeL = CN[C@H](CC(C)C)C(=O)O; Cbz = O=C(OCc1ccccc1)*

For the molecule `CC[C@H](C)[C@H]1NC(=O)[C@@H](NC(=O)[C@@H](CC(C)C)N(C)C(=O)OCc2ccccc2)[C@@H](C)OC(=O)[C@H](Cc2ccc(OC)cc2)N(C)C(=O)[C@@H]2CCCN2C(=O)[C@H](CC(C)C)NC(=O)[C@@H](C)C(=O)[C@H](C(C)C)NC(=O)C[C@@H]1O` [Cbz-[Aip^3]-Didemnin A] (Cbz-[dNMeL]T[X1][X2]LP[NMeY](Me); ester 2-C), the “HSV/CV-1 Cytotoxicity” value in the data set with CV-1 (10 ng/mL) is recorded as 0; in the data set with CV-1 (20 ng/mL), 0; in the data set on CV-1 (50 ng/mL), 8; in the data set with CV-1 (100 ng/mL), 10. Further, the “HSV/CV-1 Activity (antiviral)” value in the data set with HSV (10 ng/mL) was “−”; with HSV (20 ng/mL), “+”; in the data set on HSV (50 ng/mL), “+”; with HSV (100 ng/mL), “+”.

As for Didemnin A [Didemnin A (1)], the “HSV/CV-1 Cytotoxicity” value in the data set on CV-1 (10 ng/mL), with CV-1 (20 ng/mL), with CV-1 (50 ng/mL) and with CV-1 (100 ng/mL) was 0 throughout. Also, the “antiviral activity against DNA and RNA viruses” value with DNA and RNA viruses is recorded as “exhibit antiviral activity”. Besides, the “HSV/CV-1 Activity (antiviral)” value in the data set on HSV (10 ng/mL) is given as “−”; in the data set with HSV (20 ng/mL), “+”; in the data set with HSV (50 ng/mL), “+”; in the data set with HSV (100 ng/mL) it was “+”. Besides, the “binding to elongation factor 1α (EF-1α)” value in data set [1] is on record as “binds elongation factor 1α (EF-1α) in a GTP-dependent manner”.

As to Didemnin B, the “cytotoxicity relative to didemnin A” value in data set [2] is listed as “approximately twenty times more cytotoxic than didemnin A”. Further, the “antiviral activity against DNA and RNA viruses” value in the data set with DNA and RNA viruses is given as “exhibit antiviral activity”. Also, the “binding to a site on Nb2 node lymphoma cells” value in the data set with Nb2 node lymphoma cells is given as “binds to a site on Nb2 node lymphoma cells”.
